{
  "source": "patent US20060183800A1",
  "about": "“Methods and fluorinated compositions for treating amyloid-related diseases” (priority 2004, published 2006)",
  "target": "solubilized Aβ40 (Homo sapiens, UniProt P05067)",
  "sequence (P05067 672-711 limits assumed)": "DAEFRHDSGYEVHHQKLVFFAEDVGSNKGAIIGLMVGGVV",
  "assay": "MS (mass spectrometry) binding assay for Aβ40",
  "protocol": "The test compounds were synthesized and screened by mass spectrometry (“MS”) assays. The MS assay gives data on the ability of compounds to bind to proteins, in this example, to β-amyloid.\nIn the MS assay for Aβ40, the sample was prepared as an aqueous solution (adding 20% ethanol if necessary to solubilize in water), 200 μM of a test compound and 20 μM of solubilized Aβ40, or 400 μM of a test compound and 40 μM of solubilized Aβ40. The pH value of the sample was adjusted to 7.4 (±0.2) by addition of 0.1% aqueous sodium hydroxide. The solution was then analyzed by electrospray ionization mass spectrometry using a Waters ZQ 4000 mass spectrometer. The sample was introduced by direct infusion at a flow-rate of 25 μL/min within 2 hr. after sample preparation. The source temperature was kept at 70° C. and the cone voltage was 20 V for all the analysis. Data were processed using Masslynx 3.5 software. The MS assay gives data on the ability of compounds to bind to soluble Aβ.",
  "data": [
    {"smiles": "O=S(=O)(O)CCCNCC(F)(F)F", "note": "[3-[(2,2,2-trifluoroethyl)amino]-1-propanesulfonic acid]", "values": [
      {"measurement": "binding to soluble Aβ40", "setting": "200 μM of test compound", "value": "20-44%"},
      {"measurement": "binding to soluble Aβ40", "setting": "400 μM of test compound", "value": "45-59%"}
    ]}
  ]
}
